Results reported in US10570458B2, “Methods for diagnosis, prognosis and treatment of primary and metastatic basal-like breast cancer and other cancer types” (ONCONOSTIC TECHNOLOGIES, INC., priority 2009, dated 2020).
Entries after “also recorded” stand apart in the source; their conditions may differ.

Columns and labels:
MCF-7 cells = experiment: MTT cell proliferation assay, FOXC1-overexpressing vs control cells; type: cell-based, human
Method: MCF-7 and T47D human breast cancer cell lines were obtained from the Breast Center at Baylor College of Medicine. Cells were routinely maintained in Dulbecco's modified Eagle's medium (DMEM) supplemented with 10% fetal bovine serum (FBS), 2 mM glutamine, 50 IU/ml of penicillin, 50 μg/ml of streptomycin, and 10 μg/ml insulin. Cells were kept at 37° C. in a humidified incubator with 5% CO2. Tamoxifen and 17β-estradiol were from Sigma (St Louis, Mo.). The IKK small molecule inhibitor BMS-345541 was purchased from Calbiochem (Gibbstown, N.J.). For experiments involving estradiol and tamoxifen, cells were serum-starved overnight and then stimulated with the ER ligands for different time periods prior to cell proliferation assays. Cell viability was assessed by the 3-(4,5-dimethylthiazol-2-yl)-2,5-diphenyltetrazolium (MTT) assay. Cells were seeded in 24-well plates at 30% confluence and the MTT assay was performed one, two, three and four days after treatment. For each assay, 50 μl of MTT (5 mg/ml) were added to each well and cells were incubated at 37° C. for an additional 4 h. After centrifugation, the supernatant was carefully aspirated and 300 μl of DMSO (Sigma) were added to each well. Immediately after resolubilization, all plates were scanned at 575 nm on a microplate reader. The absorbance (A) value represented the number of live cells.

[1] = system: ERα, PR, and IRS-1 in FOXC1-overexpressing MCF-7 cells; experiment: Immunoblotting of ERα, PR and IRS-1; type: cell-based, human; conditions: 5 μM, 24 h
Method: Whole cell lysates for western blotting were generated by cell lysis buffer (50 mM Tris-HCl, pH 7.4, 150 mM NaCl, 2 mM EDTA, 1% NP-40, 10% glycerol) supplemented with a protease inhibitor cocktail (Sigma, St Louis, Mo.). Equal amounts of protein were separated by 10% SDS-PAGE and then transferred onto a nitrocellulose membrane. The remaining steps were conducted according to a standard immunoblotting protocol (Qu et al., 2009). Immunoblotting was done with polyclonal antibodies against p65, FOXC1, IRS1 (1:200; Santa Cruz Biotechnology), polyclonal antibodies against phospho-p65, p50, IκBα (1:1000; Cell Signal), or monoclonal antibodies against ERα (1:500; Novocastra Laboratories, Newcastle upon Tyne, UK), PR (1:500; DAKO, Carpinteria, Calif.). Anti-β actin (Sigma) was used at a 1:10000 dilution. After the primary antibody incubation, the membrane was again washed with PBST three times (5 min each) and then incubated with a horseradish peroxidase (HRP)-linked secondary antibody (Amersham, Piscataway, N.J.) at a dilution of 1:4000 in blocking solution. The membrane was washed and bands were visualized using chemiluminescence assays.

triple-negative patients = conditions: patients were a mix of basal-like positive and negative; cited from earlier work
[2] = system: BT549 basal-like/claudin-low cells; experiment: Cell viability (relative survival) with increasing doses of iCRT3; type: cell-based, human; conditions: BT549 (high constitutive FOXC1 expressor) compared to MCF7 (luminal) or SKBR3 (HER2) cell lines
Description: (§1) FIGS. 45A-45B show the relative survival of representative breast cancer cell lines upon inhibition of Wnt/β catenin signaling with increasing doses of the inhibitor iCRT3.

[3] = system: HS578T basal-like/claudin-low cells; experiment: as above; type: cell-based, human; conditions: HS578T (high constitutive FOXC1 expressor) compared to MCF7 (luminal) or SKBR3 (HER2) cell lines
Description: as §1

FOXC1 expression = FOXC1 expression upon inhibition of Wnt/β catenin signaling; type: cell-based, human; conditions: Wnt inhibition, dose and time dependent, particularly pronounced in BT549 mammosphere cultures
[4] = system: BT549 cancer stem cells in mammosphere culture; experiment: Mammosphere formation; type: cell-based, human
Description: FIGS. 47A-47B show mammosphere formation upon inhibition of Wnt/β catenin signaling by iCRT-3.
FIGS. 49A-49B show mammosphere formation upon simultaneous inhibition of Wnt/β catenin signaling by addition of iCRT-3 and inhibition of NF-κB signaling.

[5] = system: stem related genes and NF-κB signaling in BT549 mammosphere cells; experiment: qRT-PCR profiling of residual mammosphere cells after Wnt inhibition; type: cell-based, human
Description: FIG. 48 is a bar graph showing the fold change of mRNA expression of the stem related genes BMI-1, FOXC1, KIT, NANOG, OCT4, and SOX2 upon inhibition of Wnt/β catenin signaling by addition of iCRT-3 on day 4 (left hand bar) and day 7 (right hand bar).

[6] = system: FOXC1 expression in MDA-MB-231 basal-like/claudin-low cell line; experiment: FOXC1 expression upon exposure to Wnt3a; type: cell-based, human; conditions: MDA-MB-231 (low constitutive FOXC1 expressor) exposed to canonical Wnt ligand
Description: FIGS. 44A-44D show the correlation between FOXC1 expression and Wnt activity upon biological and pharmacologic inhibition and stimulation with a natural ligand.

## Cc1ccc2nc(NCCN)c3ncc(C)n3c2c1 [BMS-345541]
MCF-7 cells; FOXC1-overexpressing vs vector MCF-7 cells, 5 μM
  sensitivity of cell proliferation to NF-κB inhibition: sensitized
[1]
  levels of ERα, PR, and IRS-1: elevated levels

## CC(C)C[C@H](NC(=O)[C@H](Cc1ccccc1)NC(=O)c1cnccn1)B(O)O [bortezomib]
triple-negative patients
  outcome of clinical trial: inconclusive results

## C[C@]12CC[C@@H]3c4ccc(O)cc4CC[C@H]3[C@@H]1CC[C@@H]2O [estradiol, 17β-estradiol]
MCF-7 cells; FOXC1-overexpressing vs control MCF-7 cells, serum-starved, 10^−8 M
  increase of cell growth induced by treatment: diminished the increase of cell growth

## CCc1ccc(-c2nc(CSCC(=O)NCCc3ccccc3)c(C)o2)cc1 [iCRT3, 2-[[[2-(4-ethylphenyl)-5-methyl-4-oxazolyl]methyl]thio]-N-(2-phenylethyl)acetamide]
[2]
  sensitivity to treatment (decreased cell viability): more sensitive
[3]
  sensitivity to treatment (decreased cell viability): more sensitive
FOXC1 expression
  FOXC1 expression level: decrease in FOXC1 expression level
FOXC1 expression; listed as iCRT-3
  FOXC1 expression level: decreased FOXC1 expression
[4]; BT549, Wnt inhibition alone, after an initial 4 day incubation period
  mammosphere formation ability of persisting cells: renewed enhancement of mammosphere formation ability
[4]; BT549 cells, Wnt inhibition alone vs DMSO
  mammosphere formation efficiency: reduced mammosphere formation efficiency
[5]; cells persisting after Wnt inhibition
  FOXC1 positive cells: depletion of FOXC1 positive cells
[5]; cells persisting after Wnt inhibition (day 4, day 7)
  expression of embryonic stem cell transcription factors OCT4, SOX2 and NANOG: pronounced up regulation
[5]; residual cells that withstood Wnt inhibition
  NF-κB signaling (qRT-PCR based pathway activation analysis): marked activation of NF-κB signaling

## CC/C(=C(\c1ccccc1)c1ccc(OCCN(C)C)cc1)c1ccccc1 [tamoxifen]
MCF-7 cells; FOXC1-overexpressing vs control MCF-7 cells, 10^−6 M, regular medium
  sensitivity of cell proliferation to antiestrogen treatment: less sensitive

B1: Wnt3a: a canonical Wnt signaling ligand (protein, UniProt P56704 19-352, looked up)
Protein Wnt-3a: SYPIWWSLAVGPQYSSLGSQPILCASIPGLVPKQLRFCRNYVEIMPSVAEGIKIGIQECQHQFRGRRWNCTTVHDSLAIFGPVLDKATRESAFVHAIASAGVAFAVTRSCAEGTAAICGCSSRHQGSPGKGWKWGGCSEDIEFGGMVSREFADARENRPDARSAMNRHNNEAGRQAIASHMHLKCKCHGLSGSCEVKTCWWSQPDFRAIGDFLKDKYDSASEMVVEKHRESRGWVETLRPRYTYFKVPTERDLVYYEASPNFCEPNPETGSFGTRDRTCNVSSHGIDGCDLLCCGRGHNARAERRREKCRCVFHWCCYVSCQECTRVYDVHTCK
[6]
  FOXC1 expression: increased expression of FOXC1; also recorded: increase in FOXC1 expression
